Reference: patent US20250197416A1, “PARTHENOLIDE DERIVATIVES AND USE THEREOF” (University of Rochester, priority 2022, published 2025)

Key:
[1] = compared with parthenolide; cited from earlier work
[2] = test system: colon cancer cells (HCT-116); assay: MTT cell viability assay, HCT-116; assay type: cell-based, human
Experimental: (§1) The anticancer activity of the compounds was determined using a MTT (3-[4,5-dimethylthiazol-2-yl]-2,5 diphenyl tetrazolium bromide) assay, which measures cell viability upon incubation of the cells with the compounds. […] Other notable structure-activity insights include the large impact on the linkage utilized for macrocyclization of 14-hydroxy-PTL-derived AB08 and AB24 on the cancer cell specificity of these molecules.
(§2) Experimental Procedures. All cancer cell lines were maintained in a 37° C. humidified incubator with 5% C02. A549, MDA-MB-231, PC-3, SK-N-MC, HeLa, SJSA-1, HCT-116, and SK-MEL-2 cells were cultured in DMEM medium (Gibco) supplemented with 10% FBS (Gibco) and 100 I.U./ml penicillin-streptomycin (Sigma). Adherent cells were dissociated using Accutase (Millipore) or trypsin-EDTA 0.25% (Gibco). Adherent cells were seeded in a 96-well plate at a density of 1000-20,000 cells per well in 180 μl complete DMEM media. Suspension cells were seeded in conical 96-well plates (Nunc) at a density of 30,000 cells per well in 90 ul of complete α-MEM media devoid of phenol red indicator. The plates were incubated in a humidified incubator for 16 hours prior to treatment. […] The resulting OD was measured at 550 nm using a multi-well plate reader (Tecan). […] The resulting absorbance was measured at 570 nm and 600 nm using a multi-well plate reader (Tecan).

[3] = test system: human cancer cells: PC3, SK-N-MC, MDA-MB-231, A549, HeLa, SK-MEL-2, SJSA-1, HCT-116; assay: MTT cell viability assay, panel of cancer cell lines; assay type: cell-based; conditions: 24 hours; for anticancer activity profile (cytotoxicity spectrum / cancer-type specificity): reduction of cell viability at 10 μM and 20 μM; for anticancer activity (reduction of cancer cell viability): 10 μM and 20 μM
Experimental: as §1
Experimental Procedures. All cancer cell lines were maintained in a 37° C. humidified incubator with 5% C02. A549, MDA-MB-231, PC-3, SK-N-MC, HeLa, SJSA-1, HCT-116, and SK-MEL-2 cells were cultured in DMEM medium (Gibco) supplemented with 10% FBS (Gibco) and 100 I.U./ml penicillin-streptomycin (Sigma). Adherent cells were dissociated using Accutase (Millipore) or trypsin-EDTA 0.25% (Gibco). Adherent cells were seeded in a 96-well plate at a density of 1000-20,000 cells per well in 180 μl complete DMEM media. Suspension cells were seeded in conical 96-well plates (Nunc) at a density of 30,000 cells per well in 90 ul of complete α-MEM media devoid of phenol red indicator. The plates were incubated in a humidified incubator for 16 hours prior to treatment. PTL analogs were prepared as concentrated stocks (2 mM) in DMSO and stored at −30° C. Prior to testing, the analogs were diluted into complete cell culture medium and the media was supplemented with sterile DMSO (10% of final volume). For the initial cytotoxicity screening, the compounds were added to the cells in 20 μl aliquots to give a final concentration of 20 μM and 10 μM parthenologs and 1% DMSO (n=3). Following a 24-hour incubation, the culture media from the adherent cell plates (e.g., HeLa, A549) was aspirated and replaced with 100 pd of 1 mg/mL Thiazolyl Blue Tetrazolium Bromide (MTT, Fisher) in complete culture medium devoid of phenol red. After incubation at 37° C. for 1 hour, the plates were centrifuged (4000 rpm, 5 minutes), the media was removed and 100 ul of DMSO was added to solubilize the formazan product. The resulting OD was measured at 550 nm using a multi-well plate reader (Tecan). Suspension cells were treated for 24 hours in the presence or in the absence of the compounds at 10 μM and 20 μM, followed by measurement of cell viability using alamarBlue stain. After incubation, […] of AlamarBlue (Invitrogen) was added to each well and incubated until color change was observed, typically approximately 20-24 hours, in the control wells (1% DMSO in media, no compound). The resulting absorbance was measured at 570 nm and 600 nm using a multi-well plate reader (Tecan).

[4] = test system: breast cancer cells (MDA-MB-231); assay: MTT cell viability assay, MDA-MB-231; assay type: cell-based, human; conditions: relative to PTL
Experimental: as §1, §2

[5] = test system: lung adenocarcinoma (A549); assay: MTT cell viability assay, A549; assay type: cell-based, human; conditions: relative to PTL
Experimental: as §1, §2

[6] = test system: cervical (HeLa) cancer cells; assay: MTT cell viability assay, HeLa; assay type: cell-based, human; conditions: 10 μM and 20 μM, 24 hours
Experimental: as §1, §2

leukemia cell line HL-60 = assay: alamarBlue cell viability assay, HL-60; assay type: cell-based; conditions: 10 μM and 20 μM, 24 hours
Experimental: The antileukemic activity of the PTL analogs was evaluated using the leukemia cell line HL-60 and the leukemia stem cell line M9-ENL1. To measure the compound activity against hematologic cells, cells were treated for 24 hours in the presence or in the absence of the PTL analog at 10 μM and 20 μM, followed by measurement of cell viability using alamarBlue stain (FIG. 9).
as §2, with “treatment. PTL analogs were prepared as concentrated stocks (2 mM) in DMSO and stored at −30° C.” for “treatment.”

| Structure (SMILES) | anticancer activity profile (cytotoxicity spectrum / cancer-type specificity) [3] | anticancer activity (reduction of cancer cell viability) [3] | further results |
| --- | --- | --- | --- |
| CC1=CCCC2(C)OC2C2OC(=O)C(C)C2CC1 (stereo not shown) |  |  | anticancer and anti-inflammatory activity after reduction of the α-methylene-γ-lactone group [1]: complete loss of activity |
| C=C1CC[C@H]2C(=C)C(=O)O[C@@H]2[C@H]2O[C@]2(C)CCC=CCCC(=O)OC1 [AB07] |  |  | increased potency compared to PTL, based on half-maximal lethal dose (LD50) ([2]; HCT-116, relative to PTL): > 3 fold |
| C=C(C)[C@@H]1C[C@H]2C(=C)C(=O)O[C@@H]2[C@H]2O[C@]2(C)CCC=CCCC(=O)O1 [AB10] | intermediate |  |  |
| C=C1C(=O)O[C@@H]2[C@H]3O[C@]3(C)CC[C@@H]3C(=CCn4c(=O)n(-c5ccccc5)c(=O)n43)CC[C@@H]12 [AB16] | intermediate | potent anticancer activity against at least six cell lines |  |
| C=C1C(=O)O[C@@H]2[C@H]3O[C@]3(C)CCC3C(=CCC(C#N)(C#N)C3(C#N)C#N)CC[C@@H]12 (stereo partly shown) [AB17] |  | lower activity against the same cell lines |  |
| C=C1C(=O)O[C@@H]2[C@H]3O[C@]3(C)CC[C@@H]3C(=CC[C@@H]4C(=O)OC(=O)[C@@H]43)CC[C@@H]12 [AB18] |  | lower activity against the same cell lines |  |
| C=C1C(=O)O[C@@H]2[C@H]3O[C@]3(C)CCC3C(=CCC4=C3C(O)C=CC4O)CC[C@@H]12 (stereo partly shown) [AB19] | intermediate | potent anticancer activity against at least six cell lines |  |
| C=C/C1=C\CC[C@@]2(C)O[C@@H]2[C@H]2OC(=O)C(=C)[C@@H]2CC1 [AB20] | high cancer-type specificity |  |  |
| C=C1CC[C@H]2C(=C)C(=O)O[C@@H]2[C@@H]2O[C@]2(C)CCC/C=C\Cc2ccccc2C(=O)OC1 [AB24] | broad-spectrum cytotoxicity |  |  |
| C=C(C)[C@@H]1C[C@H]2C(=C)C(=O)O[C@@H]2[C@@H]2O[C@]2(C)CCCC=CCc2ccccc2C(=O)O1 [AB25] | broad-spectrum cytotoxicity |  | enhanced potency compared to PTL, based on half-maximal lethal dose (LD50) [4]: 210 fold; enhanced potency compared to PTL, based on half-maximal lethal dose (LD50) [5]: 210 fold |
| C=CCC[C@@]1(C)O[C@@H]1[C@H]1OC(=O)C(=C)[C@@H]1CCC(=C)C=O [AB26] | high cancer-type specificity |  |  |
| C=C1C(=O)O[C@@H]2[C@H]3O[C@]3(C)CC/C=C3\COC(=O)O[C@H]3C[C@@H]12 [JMB02] |  | less potent anticancer activity |  |
| C=C1C(=O)O[C@@H]2[C@H]3O[C@]3(C)CC/C=C3\COS(=O)(=O)O[C@H]3C[C@@H]12 [JMB03] | high cancer-type specificity |  | selective activity against colon (HCT-116) cancer cells ([2]; 10 μM and 20 μM, 24 hours): selective activity; selective activity against cervical (HeLa) cancer cells [6]: selective activity |
| C=C1C(=O)O[C@@H]2[C@H]3O[C@]3(C)CCC(Sc3ccccc3)C(C=O)C(=O)C[C@@H]12 (stereo partly shown) [JMB06] |  |  | anticancer activity against HL-60 (leukemia cell line HL-60): relatively selective anticancer activity |
| C=C1C(=O)O[C@@H]2[C@H]3O[C@]3(C)CCC(C3C=CC(=O)O3)C(C=O)C(=O)C[C@@H]12 (stereo partly shown) [JMB07] |  |  | anticancer activity against HL-60 (leukemia cell line HL-60): relatively selective anticancer activity |
| C=C1C(=O)O[C@@H]2[C@H]3O[C@]3(C)CC/C=C(\C)C(=O)C[C@@H]12 [JMB08] | intermediate |  |  |
